Key:
hcGAS [1] = biological target: T1, hcGAS (Homo sapiens, UniProt Q8N884); experiment: hcGAS LCMS assay (direct measurement of cGAMP production); type: biochemical; settings: 0.5 nM hcGAS, 100 μM ATP, 100 μM GTP, 25 nM dsDNA, 4 h incubation
Summary of the method: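 Direct LC/MS readout of cGAMP formed: 4-h enzyme–substrate incubation with compound, stopped by acetonitrile/water quench carrying isotope-labelled cGAMP (0.15 mM) as standard. Potency reported as IC50 ranges.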

hcGAS [2] = biological target: T1, hcGAS; experiment: hcGAS Kinase-Glo assay (ATP depletion); type: biochemical; settings: 40 nM hcGAS, 100 μM ATP, 100 μM GTP, 25 nM dsDNA, 3 h incubation
Description: cGAS catalyzes the cyclization of ATP and GTP to produce cGAMP, which is the activating ligand of STING. Human cGAS (hcGAS) inhibition can thus be quantified by measuring how much cGAMP is formed either indirectly, by monitoring ATP-depletion as in the hcGAS Kinase-Glo assay (as described below), or directly, such as using the hcGAS LCMS assay (as described below).
(i) hcGAS Kinase-Glo Assay
Compounds were tested for their human-cGAS […] inhibition activity using the methodology reported in Lama et al., “Development of human cGAS-specific small molecule inhibitors for repression of dsDNA-triggered interferon expression”, Nature Communications 10, Article number: 2261 (2019), with slight changes to some conditions as shown in Table B.
The results of the assay, expressed in IC50 values, are reported in Table D with the following designations: A represents an IC50 value<0.01 μM; B represents an IC50 value≥0.01 μM and <0.03 μM; C represents an IC50 value≥0.03 μM and <0.1 μM; D represents an IC50 value≥0.1.

T1 sequence (Q8N884 whole entry): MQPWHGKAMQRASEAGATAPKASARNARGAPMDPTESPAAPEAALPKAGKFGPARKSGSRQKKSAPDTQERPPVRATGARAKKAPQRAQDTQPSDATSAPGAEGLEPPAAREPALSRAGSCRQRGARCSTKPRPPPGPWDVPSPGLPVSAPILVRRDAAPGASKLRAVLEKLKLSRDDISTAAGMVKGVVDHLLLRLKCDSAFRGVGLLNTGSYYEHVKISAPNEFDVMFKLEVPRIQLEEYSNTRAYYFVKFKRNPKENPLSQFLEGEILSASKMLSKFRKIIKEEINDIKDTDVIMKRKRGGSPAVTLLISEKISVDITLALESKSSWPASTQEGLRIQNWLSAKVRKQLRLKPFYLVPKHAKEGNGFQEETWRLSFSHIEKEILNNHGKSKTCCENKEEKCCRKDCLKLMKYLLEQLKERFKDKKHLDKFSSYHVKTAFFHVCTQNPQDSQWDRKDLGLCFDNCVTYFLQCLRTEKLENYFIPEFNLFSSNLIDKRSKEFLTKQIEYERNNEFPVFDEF

`COc1c(N[C@@H]2CCC[C@@H]2O)cc(C(=O)Nc2nnc(-n3nccc3C)s2)oc1=O` [Compound 112, 4-(((1R,2S)-2-hydroxycyclopentyl)amino)-3-methoxy-N-(5-(5-methyl-1H-pyrazol-1-yl)-1,3,4-thiadiazol-2-yl)-2-oxo-2H-pyran-6-carboxamide] was tested, and the IC50 (hcGAS [1]) was < 5 nM and the IC50 (hcGAS [2]) was < 10 nM.

With `COCC(COC)Nc1cc(C(=O)Nc2nnc(-n3nccc3C)s2)oc(=O)c1OC` [Compound 10, 4-((1,3-dimethoxypropan-2-yl)amino)-3-methoxy-N-(5-(5-methyl-1H-pyrazol-1-yl)-1,3,4-thiadiazol-2-yl)-2-oxo-2H-pyran-6-carboxamide] the IC50 (hcGAS [1]) was 5 to 20 nM and the IC50 (hcGAS [2]) was 10 to 30 nM.

For `COc1c(NC23CC(C2)C3)cc(C(=O)Nc2nnc(-n3nccc3C)s2)oc1=O` [Compound 182, 4-(bicyclo[1.1.1]pentan-1-ylamino)-3-methoxy-N-(5-(5-methyl-1H-pyrazol-1-yl)-1,3,4-thiadiazol-2-yl)-2-oxo-2H-pyran-6-carboxamide], the IC50 (hcGAS [1]) was 5 to 20 nM and the IC50 (hcGAS [2]) was 10 to 30 nM.

In the case of `COc1c(N[C@H]2CC[C@@H](OC)C2)cc(C(=O)Nc2nnc(-n3nccc3C)s2)oc1=O` (racemic) [Rac-108, 3-methoxy-4-(((cis)-3-methoxycyclopentyl)amino)-N-(5-(5-methyl-1H-pyrazol-1-yl)-1,3,4-thiadiazol-2-yl)-2-oxo-2H-pyran-6-carboxamide], the IC50 (hcGAS [1]) is reported as 5 to 20 nM and the IC50 (hcGAS [2]) is reported as 10 to 30 nM.

With `COc1c(N[C@H]2CCC[C@H]2O)cc(C(=O)Nc2nnc(-c3c(Cl)ccn3C)s2)oc1=O` (racemic) [Rac-188, N-(5-(3-chloro-1-methyl-1H-pyrrol-2-yl)-1,3,4-thiadiazol-2-yl)-4-(((1S,2R)-2-hydroxycyclopentyl)amino)-3-methoxy-2-oxo-2H-pyran-6-carboxamide] the IC50 (hcGAS [1]) was < 5 nM and the IC50 (hcGAS [2]) was < 10 nM.

Molecule `COC[C@@H]1CCN(c2cc(C(=O)Nc3nnc(-n4nccc4C)s3)oc(=O)c2OC)C1` [Compound 1, (R)-3-methoxy-4-(3-(methoxymethyl)pyrrolidin-1-yl)-N-(5-(5-methyl-1H-pyrazol-1-yl)-1,3,4-thiadiazol-2-yl)-2-oxo-2H-pyran-6-carboxamide] has an IC50 (hcGAS [1]) of 5 to 20 nM and an IC50 (hcGAS [2]) of 10 to 30 nM.

Work on `COc1c(NC[C@@H]2CCCO2)cc(C(=O)Nc2nnc(-n3nccc3C)s2)oc1=O` [Compound 66, (S)-3-methoxy-N-(5-(5-methyl-1H-pyrazol-1-yl)-1,3,4-thiadiazol-2-yl)-2-oxo-4-(((tetrahydrofuran-2-yl)methyl)amino)-2H-pyran-6-carboxamide] yielded an IC50 (hcGAS [1]) of 5 to 20 nM and an IC50 (hcGAS [2]) of 10 to 30 nM.

`COc1c(N[C@H]2C[C@H](O)C2)cc(C(=O)Nc2nnc(-n3nccc3C)s2)oc1=O` [Compound 16, 4-(((1,3-trans)-3-hydroxycyclobutyl)amino)-3-methoxy-N-(5-(5-methyl-1H-pyrazol-1-yl)-1,3,4-thiadiazol-2-yl)-2-oxo-2H-pyran-6-carboxamide] was tested, and the IC50 (hcGAS [2]) was 30 to 100 nM.

`COc1c(N[C@H](C)CO)cc(C(=O)Nc2nnc(-n3nccc3C)s2)oc1=O` [Compound 25, (R)-4-((1-hydroxypropan-2-yl)amino)-3-methoxy-N-(5-(5-methyl-1H-pyrazol-1-yl)-1,3,4-thiadiazol-2-yl)-2-oxo-2H-pyran-6-carboxamide] was tested, and the IC50 (hcGAS [2]) was 30 to 100 nM.

Work on `COc1c(NC23CC(C(F)F)(C2)C3)cc(C(=O)Nc2nnc(-n3nccc3C)s2)oc1=O` [Compound 115, 4-((3-(difluoromethyl)bicyclo[1.1.1]pentan-1-yl)amino)-3-methoxy-N-(5-(5-methyl-1H-pyrazol-1-yl)-1,3,4-thiadiazol-2-yl)-2-oxo-2H-pyran-6-carboxamide] yielded an IC50 (hcGAS [2]) of 10 to 30 nM.

For `COc1c(NCCN)cc(C(=O)Nc2nnc(-n3nccc3C)s2)oc1=O` [Compound 203, 4-((2-aminoethyl)amino)-3-methoxy-N-(5-(5-methyl-1H-pyrazol-1-yl)-1,3,4-thiadiazol-2-yl)-2-oxo-2H-pyran-6-carboxamide], the IC50 (hcGAS [2]) was ≥ 100 nM.

`COc1c(NC2CCS(=O)(=O)CC2)cc(C(=O)Nc2nnc(-n3nccc3C)s2)oc1=O` [Compound 29, 4-((1,1-dioxidotetrahydro-2H-thiopyran-4-yl)amino)-3-methoxy-N-(5-(5-methyl-1H-pyrazol-1-yl)-1,3,4-thiadiazol-2-yl)-2-oxo-2H-pyran-6-carboxamide] gave an IC50 (hcGAS [2]) of 30 to 100 nM.

In the case of `COc1c(N[C@@H]2CCS(=O)(=O)C2)cc(C(=O)Nc2nnc(-n3nccc3C)s2)oc1=O` [Compound 82, (R)-4-((1,1-dioxidotetrahydrothiophen-3-yl)amino)-3-methoxy-N-(5-(5-methyl-1H-pyrazol-1-yl)-1,3,4-thiadiazol-2-yl)-2-oxo-2H-pyran-6-carboxamide], the IC50 (hcGAS [2]) is reported as 30 to 100 nM.

For `COc1c(NCC(F)(F)F)cc(C(=O)Nc2nnc(-n3nccc3C)s2)oc1=O` [Compound 90, 3-methoxy-N-(5-(5-methyl-1H-pyrazol-1-yl)-1,3,4-thiadiazol-2-yl)-2-oxo-4-((2,2,2-trifluoroethyl)amino)-2H-pyran-6-carboxamide], the IC50 (hcGAS [2]) was 10 to 30 nM.

With `COc1c(N2CCC(O)CC2)cc(C(=O)Nc2nnc(-n3nccc3C)s2)oc1=O` [Compound 46, 4-(4-hydroxypiperidin-1-yl)-3-methoxy-N-(5-(5-methyl-1H-pyrazol-1-yl)-1,3,4-thiadiazol-2-yl)-2-oxo-2H-pyran-6-carboxamide] the IC50 (hcGAS [2]) was 10 to 30 nM.

Molecule `COc1c(N2CCC[C@@H]2CO)cc(C(=O)Nc2nnc(-n3nccc3C)s2)oc1=O` [Compound 34, (R)-4-(2-(hydroxymethyl)pyrrolidin-1-yl)-5-methoxy-N-(5-(5-methyl-1H-pyrazol-1-yl)-1,3,4-thiadiazol-2-yl)-6-oxo-6H-pyran-2-carboxamide] has an IC50 (hcGAS [2]) of 30 to 100 nM.

With `COc1c(NCCCO)cc(C(=O)Nc2nnc(-n3nccc3C)s2)oc1=O` [Compound 35, 4-((3-hydroxypropyl)amino)-3-methoxy-N-(5-(5-methyl-1H-pyrazol-1-yl)-1,3,4-thiadiazol-2-yl)-2-oxo-2H-pyran-6-carboxamide] the IC50 (hcGAS [2]) was 10 to 30 nM.

For `COCCN(CCOC)c1cc(C(=O)Nc2nnc(-n3nccc3C)s2)oc(=O)c1OC` [Compound 63, 4-(bis(2-methoxyethyl)amino)-3-methoxy-N-(5-(5-methyl-1H-pyrazol-1-yl)-1,3,4-thiadiazol-2-yl)-2-oxo-2H-pyran-6-carboxamide], the IC50 (hcGAS [2]) was ≥ 100 nM.

For `COc1c(N[C@H]2C[C@H](OC)C2)cc(C(=O)Nc2nnc(-n3nccc3C)s2)oc1=O` [Compound 69, 3-methoxy-4-(((1,3-trans)-3-methoxycyclobutyl)amino)-N-(5-(5-methyl-1H-pyrazol-1-yl)-1,3,4-thiadiazol-2-yl)-2-oxo-2H-pyran-6-carboxamide], the IC50 (hcGAS [2]) was 10 to 30 nM.

For `COC[C@H]1CCN(c2cc(C(=O)Nc3nnc(-n4nccc4C)s3)oc(=O)c2OC)C1` [Compound 87, (S)-3-methoxy-4-(3-(methoxymethyl)pyrrolidin-1-yl)-N-(5-(5-methyl-1H-pyrazol-1-yl)-1,3,4-thiadiazol-2-yl)-2-oxo-2H-pyran-6-carboxamide], the IC50 (hcGAS [2]) was 30 to 100 nM.

For `CCc1ccnn1-c1nnc(NC(=O)c2cc(NCCOC)c(OC)c(=O)o2)s1` [Compound 141, N-(5-(5-ethyl-1H-pyrazol-1-yl)-1,3,4-thiadiazol-2-yl)-3-methoxy-4-((2-methoxyethyl)amino)-2-oxo-2H-pyran-6-carboxamide], the IC50 (hcGAS [2]) was ≥ 100 nM.

`COc1c(N[C@H]2C[C@@H](O)C2)cc(C(=O)Nc2nnc(-n3nccc3C)s2)oc1=O` [Compound 65, 4-(((1,3-cis)-3-hydroxycyclobutyl)amino)-3-methoxy-N-(5-(5-methyl-1H-pyrazol-1-yl)-1,3,4-thiadiazol-2-yl)-2-oxo-2H-pyran-6-carboxamide] showed an IC50 (hcGAS [2]) of 30 to 100 nM.
